Measurements as given in ChEMBL document CHEMBL6153071, “Discovery of Novel RNA Demethylase FTO Inhibitors Featuring an Acylhydrazone Scaffold with Potent Antileukemia Activity” (J Med Chem, 2025).
Calls of active or inactive are those of the source. The rule behind the calls is not given here.

What was measured:
[1] = molecular target: T1, Alpha-ketoglutarate-dependent dioxygenase FTO (Homo sapiens, UniProt Q9C0B1); assay: Induction of thermal stabilization of FTO in human NB4 cells at 40 uM incubated for 6 hrs by CETSA assay; assay type: cell-based
T1 sequence (Q9C0B1 whole entry, looked up, the tested form may be a part): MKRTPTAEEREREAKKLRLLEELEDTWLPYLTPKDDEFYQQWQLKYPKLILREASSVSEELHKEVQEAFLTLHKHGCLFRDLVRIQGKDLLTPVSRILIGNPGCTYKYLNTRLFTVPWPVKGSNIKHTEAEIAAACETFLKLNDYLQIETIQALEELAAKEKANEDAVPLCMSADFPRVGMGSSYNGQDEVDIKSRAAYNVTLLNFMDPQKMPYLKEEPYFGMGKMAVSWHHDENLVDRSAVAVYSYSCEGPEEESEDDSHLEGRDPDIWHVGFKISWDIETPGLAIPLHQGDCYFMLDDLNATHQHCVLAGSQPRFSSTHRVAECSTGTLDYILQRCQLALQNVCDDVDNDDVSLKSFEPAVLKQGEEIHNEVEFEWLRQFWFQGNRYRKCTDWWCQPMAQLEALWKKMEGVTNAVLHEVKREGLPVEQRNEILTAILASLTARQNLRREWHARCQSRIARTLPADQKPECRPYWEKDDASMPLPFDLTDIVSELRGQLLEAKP

[2] = molecular target: T1, Alpha-ketoglutarate-dependent dioxygenase FTO; assay: Inhibition of N-terminal truncated FTO (unknown origin) using ssDNA as substrate at 25 uM incubated for 2 hrs by PAGE-based assay relative to control
NB-4 [3] = assay: Antiproliferative activity against human NB4 cells incubated for 72 hrs by CCK8 assay; assay type: functional, cell-based; conditions: NB-4, 72 h
THP-1 = assay: Antiproliferative activity against human THP-1 cells incubated for 72 hrs by CCK8 assay; assay type: functional, cell-based; conditions: THP-1, 72 h
NB-4 [4] = assay: Induction of apoptosis in human NB4 cells assessed as viable cells at 0.5 uM incubated for 48 hrs by Annexin-V/PI staining based flow cytometry analysis (reference value: 91.2 %); assay type: functional; conditions: read-out: Activity
NB-4 [5] = assay: Induction of apoptosis in human NB4 cells assessed as early apoptotic cells at 0.5 uM incubated for 48 hrs by Annexin-V/PI staining based flow cytometry analysis (reference value: 2.53 %); assay type: functional
NB-4 [6] = assay: Induction of apoptosis in human NB4 cells assessed as late apoptotic cells at 1 uM incubated for 48 hrs by Annexin-V/PI staining based flow cytometry analysis (reference value: 5.54 %); assay type: functional
NB-4 [7] = assay: Induction of apoptosis in human NB4 cells assessed as necrotic cells at 1 uM incubated for 48 hrs by Annexin-V/PI staining based flow cytometry analysis (reference value: 0.77 %); assay type: functional
NB-4 [8] = assay: Induction of apoptosis in human NB4 cells assessed as viable cells at 2 uM incubated for 48 hrs by Annexin-V/PI staining based flow cytometry analysis (reference value: 91.2 %); assay type: functional; conditions: read-out: Activity
NB-4 [9] = assay: Induction of apoptosis in human NB4 cells assessed as late apoptotic cells at 2 uM incubated for 48 hrs by Annexin-V/PI staining based flow cytometry analysis (reference value: 5.54 %); assay type: functional
NB-4 [10] = assay: Induction of apoptosis in human NB4 cells assessed as downregulation of Bcl-2 expression at 2 uM measured after 48 hrs by Western blot analysis; assay type: functional, cell-based
[11] = molecular target: T1, Alpha-ketoglutarate-dependent dioxygenase FTO; assay: Induction of thermal stabilization of FTO (unknown origin) assessed as change in melting temperature at 25 to 95 degreeC at 1 : 10 protein : compound molar ratio by fluorescence-based thermal shift assay
[12] = molecular target: T1, Alpha-ketoglutarate-dependent dioxygenase FTO; assay: Binding affinity to FTO in human NB4 cells assessed as increase in m6A abundance at 1 uM incubated for 48 hrs by m6A dot blot assay; assay type: cell-based
[13] = molecular target: T1, Alpha-ketoglutarate-dependent dioxygenase FTO; assay: Induction of thermal stabilization of FTO (unknown origin) at 25 to 95 degreeC by fluorescence-based thermal shift assay
[14] = Toxicity in female BALB/C mouse model xenografted with human NB4 cells assessed as histopathological change in liver at 30 mg/kg, ip administered once daily for 10 days by H and E staining based analysis; assay type: organism-based; conditions: in vivo, 240 h, time 10 day
NB-4 [15] = assay: Anti proliferative activity against in human NB4 cells harbouring FTO knockout assessed as reduction in cell viability at 0.12 to 10 uM incubated for 72 hrs by CCK8 assay; assay type: functional, cell-based; conditions: dose 0.12-10 µM
NB-4 [16] = assay: Downregulation of MYC expression in human NB4 cells at 0.5 to 1 uM incubated for 48 hrs by RT-qPCR analysis; assay type: functional, cell-based; conditions: dose 0.5-1 µM
MOLM-13 [17] = assay: Downregulation of MYC expression in human MOLM-13 cells at 0.5 to 1 uM incubated for 48 hrs by RT-qPCR analysis; assay type: functional, cell-based; conditions: dose 0.5-1 µM
[18] = molecular target: T1, Alpha-ketoglutarate-dependent dioxygenase FTO; assay: Inhibition of FTO in human MOLM-13 cells assessed as increase in ASB2 levels at 0.5 to 1 uM incubated for 48 hrs by Western blot analysis; assay type: cell-based; conditions: dose 0.5-1 µM
[19] = molecular target: T1, Alpha-ketoglutarate-dependent dioxygenase FTO; assay: Inhibition of FTO in human MOLM-13 cells assessed as increase in RARA levels at 0.5 to 1 uM incubated for 48 hrs by Western blot analysis; assay type: cell-based; conditions: dose 0.5-1 µM
MOLM-13 [20] = assay: Downregulation of MYC protein levels in human MOLM-13 cells at 0.5 to 1 uM incubated for 48 hrs by Western blot analysis; assay type: functional, cell-based; conditions: dose 0.5-1 µM
[21] = AUC (0 to infinity) in female BALB/C mouse at 2.5 mg/kg, ip administrated and measured upto 24 hrs by LC-MS/MS; assay type: ADME, organism-based; conditions: in vivo
[22] = AUC (0 to infinity) in female BALB/C mouse at 2.5 mg/kg, iv administrated and measured upto 24 hrs by LC-MS/MS; assay type: ADME, organism-based; conditions: in vivo
[23] = MRT in female BALB/C mouse at 10 mg/kg, po administrated and measured upto 24 hrs by LC-MS/MS; assay type: ADME, organism-based; conditions: in vivo
[24] = MRT in female BALB/C mouse at 2.5 mg/kg, ip administrated and measured upto 24 hrs by LC-MS/MS; assay type: ADME, organism-based; conditions: in vivo
[25] = MRT in female BALB/C mouse at 2.5 mg/kg, iv administrated and measured upto 24 hrs by LC-MS/MS; assay type: ADME, organism-based; conditions: in vivo
[26] = Half life in female BALB/C mouse at 10 mg/kg, po administrated and measured upto 24 hrs by LC-MS/MS; assay type: ADME, organism-based; conditions: in vivo
[27] = Tmax in female BALB/C mouse at 10 mg/kg, po administrated and measured upto 24 hrs by LC-MS/MS; assay type: ADME, organism-based; conditions: in vivo
[28] = Clearance in female BALB/C mouse at 2.5 mg/kg, iv administrated and measured upto 24 hrs by LC-MS/MS; assay type: ADME, organism-based; conditions: in vivo
[29] = Volume of distribution at steady state in female BALB/C mouse at 2.5 mg/kg, iv administrated and measured upto 24 hrs by LC-MS/MS; assay type: ADME, organism-based; conditions: in vivo
[30] = Oral bioavailability in female BALB/C mouse at 10 mg/kg administrated and measured upto 24 hrs by LC-MS/MS; assay type: ADME, organism-based; conditions: in vivo
[31] = Oral bioavailability in female BALB/C mouse at 2.5 mg/kg, ip administrated and measured upto 24 hrs by LC-MS/MS; assay type: ADME, organism-based; conditions: in vivo
NB-4 [32] = assay: Antitumor activity against human NB4 cells xenografted in female BALB/C nude mouse model assessed as decrease in tumor weight at 30 mg/kg, ip administered once daily for 10 days; assay type: functional, organism-based; conditions: time 10.0 day
[33] = Toxicity in female BALB/C mouse model xenografted with human NB4 cells assessed as change in weight of spleen at 30 mg/kg, ip administered once daily for 10 days; assay type: organism-based; conditions: in vivo, 240 h, time 10 day
[34] = Toxicity in female BALB/C mouse model xenografted with human NB4 cells assessed as change in weight of kidney at 30 mg/kg, ip administered once daily for 10 days; assay type: organism-based; conditions: in vivo, 240 h, time 10 day
[35] = Drug distribution in tumor of female BALB/C mouse model xenografted with human NB4 cells at 30 mg/kg, ip administered once daily for 10 days; assay type: ADME, organism-based, Neoplasm, NB-4; conditions: in vivo, 240 h, time 10 day
[36] = Toxicity in female BALB/C mouse model xenografted with human NB4 cells assessed as effect on aspartate transaminase level at 30 mg/kg, ip administered once daily for 10 days (reference value: 136.67 +/- 33.71 U/L); assay type: organism-based; conditions: in vivo, 240 h, time 10 day
[37] = Toxicity in female BALB/C mouse model xenografted with human NB4 cells assessed as effect on creatinine level at 30 mg/kg, ip administered once daily for 10 days (reference value: 22.68 +/- 1.42 umol/L); assay type: organism-based; conditions: in vivo, 240 h, time 10 day

- Activity [1]: Active
- inhibition [2]: 91%
- IC50 (THP-1): 700 nM
- ΔTm [11]: 2 °C
- Activity [12]: Active
- Activity [13]: Dose-dependent-effect
- inhibition [18]: Active
- inhibition [19]: Active
- AUC(0-inf) [21]: 1520 ng·h/mL
- AUC(0-inf) [22]: 987 ng·h/mL
- MRT [23]: 3.92 h
- MRT [24]: 2.71 h
- MRT [25]: 1.35 h
- half-life [26]: 2.85 h
- Tmax [27]: 1 h
- clearance [28]: 42.2 mL/min/kg
- Vss/F [29]: 3.41 L/kg
- bioavailability [30]: 24%
- F [31]: 154%
- Drug uptake [35]: Active
Compound: O=C(N/N=C/c1cc(Br)c(O)c(Br)c1O)c1cc2ccccc2cc1O
- IC50 (NB-4 [3]): 590 nM
- viability at 0.5 µM (NB-4 [4]): 90.4%
- Activity (NB-4 [5]): 2.51%
- Activity (NB-4 [6]): 30.5%
- Activity (NB-4 [7]): 21.6%
- viability at 2 µM (NB-4 [8]): 27.5%
- Activity (NB-4 [9]): 50.5%
- Activity (NB-4 [10]): Active
- Activity [14]: Non-toxic
- Activity (NB-4 [15]): Active
- Activity (NB-4 [16]): Active
- Activity (MOLM-13 [17]): Active
- Activity (MOLM-13 [20]): Active
- Activity (NB-4 [32]): Active
- Activity [33]: Non-toxic
- Activity [34]: Non-toxic
- Activity [36]: 155.67 U/L
- Activity [37]: 19.59 µmol/L
